From article PMC11173529, “Structure–Activity Relationship Studies in a Series of Xanthine Inhibitors of SLACK Potassium Channels” (Molecules, 2024)

How the values were obtained:
[1] = target: T1, mouse WT SLACK (Mus musculus, UniProt Q6ZPR4); test: Whole-cell APC in CHO cells stably expressing mouse WT SLACK; assay type: cell-based; details: for IC50: APC, CHO cells; for Imax: maximum inhibition at 30 µM standardized to VU0606170 (100%)
T1 construct: expressed in transfected cells; host or cells: CHO
T1 sequence (Q6ZPR4 1-1224): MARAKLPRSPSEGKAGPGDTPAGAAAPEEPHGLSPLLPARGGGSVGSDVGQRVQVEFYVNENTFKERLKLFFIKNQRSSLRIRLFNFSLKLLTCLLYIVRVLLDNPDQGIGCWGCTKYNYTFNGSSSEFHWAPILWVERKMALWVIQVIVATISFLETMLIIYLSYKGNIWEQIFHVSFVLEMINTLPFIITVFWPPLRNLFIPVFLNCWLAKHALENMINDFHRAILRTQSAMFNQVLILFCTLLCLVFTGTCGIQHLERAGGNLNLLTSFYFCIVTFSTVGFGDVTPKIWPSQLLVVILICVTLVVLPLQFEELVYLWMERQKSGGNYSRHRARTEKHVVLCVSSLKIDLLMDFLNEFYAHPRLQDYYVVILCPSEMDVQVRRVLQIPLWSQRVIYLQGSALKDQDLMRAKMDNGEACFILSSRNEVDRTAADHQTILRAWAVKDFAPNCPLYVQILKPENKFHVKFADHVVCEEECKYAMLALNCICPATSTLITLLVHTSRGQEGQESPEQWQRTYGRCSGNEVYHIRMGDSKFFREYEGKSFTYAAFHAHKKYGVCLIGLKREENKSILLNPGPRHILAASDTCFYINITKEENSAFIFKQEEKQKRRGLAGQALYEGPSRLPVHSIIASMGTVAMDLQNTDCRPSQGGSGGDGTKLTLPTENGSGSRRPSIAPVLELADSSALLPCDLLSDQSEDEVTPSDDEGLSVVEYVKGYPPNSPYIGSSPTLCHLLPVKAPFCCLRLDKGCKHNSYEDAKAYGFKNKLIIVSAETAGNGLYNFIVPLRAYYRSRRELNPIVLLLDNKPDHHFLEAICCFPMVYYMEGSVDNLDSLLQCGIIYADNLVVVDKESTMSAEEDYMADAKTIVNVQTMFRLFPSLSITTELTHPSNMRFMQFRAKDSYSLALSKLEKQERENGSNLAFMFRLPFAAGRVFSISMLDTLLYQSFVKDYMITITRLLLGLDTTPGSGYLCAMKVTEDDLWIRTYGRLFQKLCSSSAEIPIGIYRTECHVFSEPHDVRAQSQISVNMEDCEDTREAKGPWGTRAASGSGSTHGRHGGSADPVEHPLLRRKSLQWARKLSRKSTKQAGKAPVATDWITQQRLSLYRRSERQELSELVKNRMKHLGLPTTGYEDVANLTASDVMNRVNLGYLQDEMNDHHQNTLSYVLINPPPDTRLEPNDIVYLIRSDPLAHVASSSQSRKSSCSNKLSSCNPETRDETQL
Text: Development of a useful SLACK inhibitor in vivo tool will require potent activity at the corresponding mouse ortholog as studies in appropriate mouse models will be critical. Thus, we evaluated analogs 32 and 48 in our APC assay using CHO cells stably expressing mouse WT SLACK (Table 6). […] We were also eager to evaluate the same compounds with regard to their ability to inhibit clinically relevant GOF SLACK mutants. Both the C-terminus A934T mutant and transmembrane G288S mutant have been associated with clinical cases of EIMFS [3, 7].
Automated patch-clamp recording was performed with a SyncroPatch 768 PE system (Nanion, Munich, Germany) as previously described. Whole-cell recordings were performed at room temperature. Cells were harvested by first washing with PBS without Mg^2+ or Ca^2+ (Gibco, Billings, MT, USA) to remove cell culture media, followed by dissociation with TryPLE (Gibco, Billings, MT, USA). Cells were then resuspended and diluted to 100,000 cells/mL in external solution. External solution contained 105 mM NaCl, 4 mM KCl, 1 mM MgCl2, 5 mM CaCl2, 10 mM HEPES, and 40 mM N-Methyl-D-glucamine chloride, titrated to pH of 7.4 and osmolarity of 300 mOsm/kg; internal solution contained 70 mM NaCl, 70 mM KF, 10 mM KCl, 5 mM EGTA, and 5 mM HEPES, titrated to a pH of 7.2 and osmolarity of 295 mOsm/kg.
The APC protocol was set as follows: Cells were held at a […] of −80 mV for 100 ms, then a ramp protocol was performed from −100 mV to 80 mV at 0.4 mV/ms, followed by holding the cell at −80 mV for another 100 ms, then steps were performed at −20 mV, 0 mV, +20 mV, +40 mV, and +60 mV for 100 ms of each step. Whole-cell currents were measured at 0 mV and normalized to current after external buffer addition. […] To obtain the concentration-response relationship graphs and IC50 values, we take the median value of the last 7 current amplitude values obtained for each set of data points collected for a given concentration at a particular step.

[2] = target: WT hSLACK (Homo sapiens, UniProt Q5JUK3); test: Whole-cell automated patch-clamp (APC) in CHO cells stably expressing WT hSLACK; assay type: cell-based; details: range across the three variants, APC; read-out: IC50 values across WT, A934T, and G288S SLACK
WT hSLACK, sequence (Q5JUK3 whole entry): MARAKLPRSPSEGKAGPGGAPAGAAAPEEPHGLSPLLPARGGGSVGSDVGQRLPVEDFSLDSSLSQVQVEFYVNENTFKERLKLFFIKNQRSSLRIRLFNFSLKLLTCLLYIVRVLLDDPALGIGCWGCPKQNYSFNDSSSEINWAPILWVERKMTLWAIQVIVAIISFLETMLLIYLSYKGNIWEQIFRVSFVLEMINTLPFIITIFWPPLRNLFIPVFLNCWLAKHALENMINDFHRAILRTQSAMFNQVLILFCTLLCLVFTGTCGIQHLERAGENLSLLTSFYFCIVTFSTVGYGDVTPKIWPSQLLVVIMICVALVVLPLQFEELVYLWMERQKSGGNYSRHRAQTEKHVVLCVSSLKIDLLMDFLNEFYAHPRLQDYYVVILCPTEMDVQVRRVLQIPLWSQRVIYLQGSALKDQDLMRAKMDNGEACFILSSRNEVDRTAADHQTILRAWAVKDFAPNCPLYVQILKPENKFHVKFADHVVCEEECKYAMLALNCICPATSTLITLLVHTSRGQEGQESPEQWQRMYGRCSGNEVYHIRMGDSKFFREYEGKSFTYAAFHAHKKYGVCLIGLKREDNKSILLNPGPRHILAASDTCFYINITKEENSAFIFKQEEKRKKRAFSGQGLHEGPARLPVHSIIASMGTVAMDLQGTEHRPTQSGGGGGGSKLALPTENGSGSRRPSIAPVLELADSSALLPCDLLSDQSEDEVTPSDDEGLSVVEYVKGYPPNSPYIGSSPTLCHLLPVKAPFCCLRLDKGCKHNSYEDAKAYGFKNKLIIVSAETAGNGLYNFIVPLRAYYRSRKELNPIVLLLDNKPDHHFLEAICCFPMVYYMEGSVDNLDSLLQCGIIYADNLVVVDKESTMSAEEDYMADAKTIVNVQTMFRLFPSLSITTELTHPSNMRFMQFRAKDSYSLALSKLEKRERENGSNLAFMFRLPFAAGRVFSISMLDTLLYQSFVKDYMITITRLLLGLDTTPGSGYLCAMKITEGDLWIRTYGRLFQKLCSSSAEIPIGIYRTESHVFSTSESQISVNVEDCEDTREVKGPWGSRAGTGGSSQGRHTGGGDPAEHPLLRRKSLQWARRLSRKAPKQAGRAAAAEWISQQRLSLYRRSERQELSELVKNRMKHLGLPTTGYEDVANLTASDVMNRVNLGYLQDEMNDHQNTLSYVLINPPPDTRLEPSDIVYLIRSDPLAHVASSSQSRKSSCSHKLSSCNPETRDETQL
Outline: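 CHO-K1 cells stably expressing human SLACK were whole-cell recorded at room temperature with Na/NMDG external solution pH 7.4 and KF-based internal pH 7.2. Concentrations 0.125–30 μM in half-log steps, ≥3 cells each; ramp and step protocol from −80 mV holding, current at 0 mV normalized to post-buffer current, IC50 from median of last 7 amplitudes.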

IC50 [2] [nM] | SMILES | IC50 [1] [nM] | Imax [1] [%]
 | COc1cccc(Cn2c(=O)c3c(nc(N(C)Cc4ccccc4)n3C)n(C)c2=O)c1 [Analog 32] | 1400 | 100
 | CN(Cc1cccc(F)c1)c1nc2c(c(=O)n(Cc3ccccc3)c(=O)n2C)n1C [Analog 48] | 1300 | 100
590 to 710 | CCCCN(Cc1ccc(F)cc1)c1nc2c(c(=O)n(Cc3cccc(OC)c3)c(=O)n2C)n1C [Analog 80] |  | 
